Test results from ChEMBL document CHEMBL1201862, “PubChem BioAssay data set” (2004).
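Method: 48-hour compound exposure of cells in 96-well plates, five concentrations, linear interpolation of endpoints. GI50: concentration for 50% inhibition of growth.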 Active and inactive are the calls of the source. No stated cut-off is given here; in the data, active = GI50 up to about 1.1 µM and inactive = higher.

Legend:
Experiment in all cases: NCI anticancer screen, dose series, 48 h
CAKI-1 = system: CAKI-1
HOP-62 = system: HOP-62
KM12 = system: KM12
SR = system: SR
UACC-62 = system: UACC-62
NCI-H460 = system: NCI-H460
A549 = system: A549
DU-145 = system: DU-145
SK-OV-3 = system: SK-OV-3
M14 = system: M14
SF-268 = system: SF-268
COLO 205 = system: COLO 205
SK-MEL-5 = system: SK-MEL-5
BT-549 = system: BT-549
SN12C = system: SN12C
U-251 = system: U-251
Malme-3M = system: Malme-3M
MDA-MB-231 = system: MDA-MB-231
OVCAR-4 = system: OVCAR-4
LOX IMVI = system: LOX IMVI

Measured: GI50

OCCN(CCO)c1ccc2c(-c3ccccc3)cc(N(CCO)CCO)nc2n1
inactive: CAKI-1 > 100 µM | HOP-62 > 100 µM | KM12 > 100 µM | SR 20 µM | UACC-62 > 100 µM | NCI-H460 > 100 µM | A549 > 100 µM | DU-145 > 100 µM | SK-OV-3 > 100 µM | M14 > 100 µM | SF-268 > 100 µM | COLO 205 > 100 µM | SK-MEL-5 > 100 µM | BT-549 > 100 µM | SN12C > 100 µM | U-251 > 100 µM | Malme-3M > 100 µM | MDA-MB-231 > 100 µM | OVCAR-4 > 100 µM

COc1ccc(NC=O)c(C(O)CCNC(C)=O)c1 (configuration not stated)
inactive: CAKI-1 > 100 µM | LOX IMVI > 100 µM | KM12 > 100 µM | SR > 100 µM | UACC-62 > 100 µM | NCI-H460 > 100 µM | A549 > 100 µM | DU-145 > 100 µM | SK-OV-3 > 100 µM | M14 > 100 µM | SF-268 > 100 µM | COLO 205 > 100 µM | SK-MEL-5 > 100 µM | BT-549 > 100 µM | SN12C > 100 µM | U-251 > 100 µM | MDA-MB-231 > 100 µM | OVCAR-4 > 100 µM

C=CCC1(O)c2cccc(O)c2C(=O)c2cccc(O)c21 (configuration not stated)
inactive: CAKI-1 21.7 µM | HOP-62 21.4 µM | LOX IMVI 16.3 µM | KM12 17.3 µM | SR 6.41 µM | NCI-H460 13.9 µM | A549 15.8 µM | DU-145 17.6 µM | M14 16.2 µM | SF-268 23.3 µM | SK-MEL-5 10.7 µM | BT-549 16.8 µM | U-251 11.9 µM | MDA-MB-231 21.1 µM | OVCAR-4 29.2 µM

CSCCCNC(=O)c1csc(-c2csc(C(CNC(=O)OC(C)(C)C)CNC(=O)OC(C)(C)C)n2)n1
inactive: CAKI-1 59.6 µM | HOP-62 33.7 µM | LOX IMVI 39.8 µM | KM12 31 µM | SR 24.4 µM | UACC-62 18.1 µM | NCI-H460 14.5 µM | DU-145 76.2 µM | SK-OV-3 60.3 µM | M14 47 µM | SF-268 76.2 µM | COLO 205 34 µM | SK-MEL-5 26.1 µM | BT-549 34.5 µM | SN12C 61.8 µM | U-251 25.6 µM | MDA-MB-231 57.8 µM | OVCAR-4 26.9 µM

O=C1Nc2ccccc2/C1=N/Nc1nc(-c2cccc([N+](=O)[O-])c2)cs1
inactive: CAKI-1 19.2 µM | HOP-62 24.1 µM | LOX IMVI 20.7 µM | KM12 26.3 µM | SR 53 µM | UACC-62 26.7 µM | NCI-H460 16.9 µM | A549 20.1 µM | DU-145 25.6 µM | SK-OV-3 29.9 µM | M14 34.1 µM | SF-268 19.7 µM | COLO 205 27.1 µM | SK-MEL-5 20.2 µM | BT-549 36.3 µM | SN12C 20.8 µM | U-251 21.4 µM | MDA-MB-231 17.7 µM | OVCAR-4 21 µM

O=C(CCc1ccc(O)c(O)c1)NCCc1cc(OCc2ccccc2)cc(OCc2ccccc2)c1
inactive: CAKI-1 4.45 µM | HOP-62 13.1 µM | LOX IMVI 10.4 µM | KM12 8.99 µM | SR 2.88 µM | UACC-62 14.9 µM | NCI-H460 5.55 µM | A549 16.7 µM | DU-145 14.1 µM | SK-OV-3 14 µM | M14 12.1 µM | SF-268 8.45 µM | COLO 205 2.81 µM | SK-MEL-5 12.2 µM | BT-549 6.07 µM | SN12C 10.4 µM | U-251 5.77 µM | MDA-MB-231 16.6 µM
